Laboratory results: patent publication US20140056964A1, “GRANZYME B INHIBITOR COMPOSITIONS, METHODS AND USES FOR PROMOTING WOUND HEALING” (THE UNIVERSITY OF BRITISH COLUMBIA, priority 2010, published 2014)
pIC50: −log10 of the molar value. Entries after “also recorded” stand apart in the source; their conditions may differ.

Legend:
[1] = molecular target: T1, purified human Granzyme B (Homo sapiens, UniProt P10144); assay: proteoglycan cleavage assay (recombinant decorin, biglycan, betaglycan incubated with Granzyme B +/- inhibitor, SDS-PAGE); type: biochemical; settings: for Granzyme B cleavage of decorin: 24 h, 30 ul, Coomassie Blue stain
T1 construct: purchased Axxora, San Diego, Calif
Experimental: For ECM cleavage assays, Granzyme B and/or the inhibitor 3,4-dichloroisocoumarin (DCI), were incubated for 4 and 24 hours at room temperature, with decorin, biglycan or soluble betaglycan and visualized by Ponceau staining. Cleavage fragments were subjected to Edman degradation for cleavage site identification.
Proteoglycan cleavage assays. The recombinant human PGs, decorin (0.5 μg, Abnova, Walnut, Calif.), biglycan and betaglycan (1.5-5 ug, R&D Systems, Minneapolis, Minn.) were incubated at room temperature for 24 h with 25-500 nM purified human Granzyme B (Axxora, San Diego, Calif.), in 50 mM Tris buffer, pH 7.4. For inhibitor studies, Granzyme B was incubated in the presence or absence of 200 μM of the serine protease inhibitor 3,4-dichloroisocoumarin (DCI; Santa Cruz Biotechnology Inc, Santa Cruz, Calif.) or inhibitor solvent control, dimethyl sulfoxide (DMSO; Sigma-Aldrich, St Louis, Mo.) for 4 h or 24 h. After incubation, proteins were denatured, separated on a 10% SDS-polyacrylamide gel and transferred to a nitrocellulose membrane. Ponceau stain (Fisher Scientific, Waltham, Mass.) was used to detect cleavage fragments.
Samples were run on a 10% gel, imaged with Ponceau stain and scanned.
In this Example, incubations were performed at RT for 24 h in a total reaction volume of 30 ul. Samples were run on a 10% gel and imaged by Coomassic Blue stain. With reference to FIG. 17, the asterisk=full length protein.
Samples were run on a 10% gel, imaged with Ponceau stain and scanned. […] DMSO vehicle control was not included due to redundancy. Asterisk=full length protein; Arrow=cleavage fragments. Obstruction in Granzyme B/Betaglycan lane affecting first 2 cleavage fragments.

[2] = molecular target: T2, Granzyme B (Homo sapiens, UniProt P10144); assay: continuous colorimetric Granzyme B inhibition assay with substrate Ac-IEPD-pNA; type: biochemical; settings: substrate Ac-IEPD-pNA 20 μM, 37° C., pNA release at 405 nm
Experimental: Small molecule libraries (ZINC—Irwin J J and Shoichet B K, 2005. J. Chem Inf Model 4591:177-182; NCI—Voigt, J. H. et al. J. Chem. Inf Comput. Sci. 2001, 41, 702-712) were screened in silico for candidate Granzyme B inhibitory compounds. Several candidate small molecule inhibitors were identified and subjected to an in vitro Granzyme B inhibition assay. More specifically, a continuous colormetric assay for Granzyme B activity was carried out with the substrate Ac-IEPD-pNA. Briefly, 8 ug/ml Granzyme B, 20 μM substrate, and increasing concentrations of the inhibitor of interest was incubated in a final reaction volume of 50 ul. The reaction buffer consisted of 50 mM HEPES pH 7.5, 10% sucrose, 0.1% CHAPS and 5 mM DTT and reactions were carried out at 37° C. pNA release and Granzyme B inhibition was monitored at 405 nm on a Tecan Safire microplate reader.
As detailed herein and as detailed in Tables A and B herein, candidate inhibitors, and IC50 concentration obtained from the inhibition assay are set out below.

[3] = molecular target: T2, Granzyme B; assay: cleavage of endogenous HCASMC-derived ECM (fibronectin, decorin Western blot) by 100 nM Granzyme B +/- inhibitor; type: biochemical; settings: inhibitor at 150 μM
Experimental: More specifically, as it relates to FIG. 18, to synthesize endogenous ECM, human coronary artery smooth muscle cells were seeded in 6 well plates and incubated at confluency for 7 days in serum starvation media (SMGM+0.2% FBS). Cells were removed from the plates by incubation with 0.25M Ammonium Hydroxide for 20 min. This treatment removes cells while leaving the surrounding extracellular matrix intact. Subsequently, 100 nM Granzyme B and the inhibitor of interest were incubated on the endogenous ECM for 24 h. Supernatants from the plates (containing cleavage fragments) were run on an SDS-PAGE gel and Western blotted for fibronectin or decorin. DMSO solvent control was not included due to redundancy. Asterisk=full length protein; Arrow=cleavage fragments, star denotes full length. […] Cells were removed from the plates by incubation with 0.25M Ammonium Hydroxide for 20 min. This treatment removes cells while leaving the surrounding extracellular matrix intact. Subsequently, 100 nM Granzyme B and the inhibitor of interest were incubated on the endogenous ECM for 24 h. Supernatants from the plates (containing cleavage fragments) were run on to an SDS-PAGE gel and Western blotted for fibronectin or decorin. DMSO solvent control was not included due to redundancy. Asterisk=full length protein; Arrow=cleavage fragments, star denotes full length.

[4] = tested on: human coronary artery smooth muscle cells (HCASMC); assay: Human coronary artery smooth muscle cell TGF-β bioavailability assay (SMAD-3 / Erk phosphorylation); type: cell-based; settings: supernatants of betaglycan release assay (Granzyme B +/- DCI) on cells for 16 h
Experimental: To determine if the TGF-β released by Granzyme B was active, supernatants from the above release assay were incubated on human coronary artery smooth muscle cells (HCASMC) and SMAD/Erk activation was examined by Western blotting. For bioavailability assays, HCASMCs (Clonetics/Lonza, Walkersville, Md.) at passage 3-5 were seeded in 6 well plates in smooth muscle cell growth media (SmGM, Clonetics) +5% fetal bovine serum (FBS, Invitrogen) and grown to confluence. At this time, cells were quiesced by serum removal for 24 h, after which time 150 μl of release assay supernatants (as described above) or a 10 ng TGF-β positive control were added to the cells for 16 h. Cell lysates were assessed by SDS-PAGE/Western blotting for phosphorylated-Erk 1/2 (p-Erk1/2; 1:1000, Cell Signaling Technology, Danvers, Mass.), total Erk 1/2 (t-Erk1/2; 1:1000, Cell Signaling Technology), phosphorylated-SMAD3 (p-SMAD3; 1:2000, Epitomics, Burlingame, Calif.), total SMAD3 (t-SMAD3; 1:500, BD Biosciences) and the loading controls β-actin (1:5000, Sigma-Aldrich) or β-tubulin (1:3000, Millipore, Billerica, Mass.). Secondary IRDye® 800 conjugated antibodies (1:3000, Rockland Inc) were utilized and imaged with the Odyssey Infrared Imaging System (LI-COR Biotechnology). […]

[5] = molecular target: T2, Granzyme B; assay: TGF-β release assay from proteoglycan/TGF-β complexes (Western blot of supernatants); type: biochemical; settings: for release of TGF-β from betaglycan/TGF-β complexes by Granzyme B: 20 ug/ml betaglycan, 10 ng TGF-β, 24 h at RT
Experimental: Cytokine release was assessed in supernatants using Western blotting. TGF-β release assays were carried out using a method similar to that previously described for the MMPs (Imai et al. 1997). Briefly, decorin, biglycan and betaglycan (15 μg/mL) were coated onto 48 well tissue culture plastic plates and allowed to incubate overnight at 4° C. in PBS, pH 7.4. After blocking with 1% bovine serum albumin, 20 ng of active TGF-β1 per well (Peprotech Inc, Rocky Hill, N.J.) was added in DPBS containing calcium and magnesium (#14040, Invitrogen, Carlsbad, Calif.) for 5 h at RT. Granzyme B, with or without DCI, was then added to the wells. After 24 h, supernatants were removed, denatured, and run on a 15% SDS-PAGE gel. Once transferred to a nitrocellulose membrane and blocked with 10% skim milk, the membrane was probed using a rat anti-human TGF-β1 antibody (1:200, BD Biosciences, Franklin Lakes, N.J.) and IRDye® 800 conjugated affinity purified anti-Rat IgG (1:3000, Rockland Inc, Gilbertsville, Pa.). Bands were imaged using the Odyssey Infrared Imaging System (LI-COR Biotechnology, Lincoln, Nebr.). In this Example, 20 ug/ml betaglycan was coated onto 48 well plates and incubated with 10 ng of TGF-β. Excess TGF-β was washed off the plate and betaglycan/TGF-β complexes were incubated with Granzyme B+/− inhibitors for 24 h at RT. Supernatants (containing released TGF-β) were collected and Western blotted for TGF-β. There is little non-specific dissociation of TGF-β into supernatants in the absence of Granzyme B (2; see FIG. 16). TGF-β is released by Granzyme B after 24 h of incubation (4; see FIG. 16).

[6] = molecular target: T2, Granzyme B; assay: fibronectin cleavage by Granzyme B +/- inhibitor; type: biochemical; settings: inhibitor at 3.12 nM
Experimental: As shown in FIGS. 21A and B herein, incubations as described herein were performed with fibronectin (FN) and Granzyme B, both in the absence of inhibitor Willoughby 20 and in the presence of inhibitor Willoughby 20. Compound Willoughby 20 inhibits Granzyme B cleavage of FN at 3.12 nM.

T2 sequence (P10144 21-247): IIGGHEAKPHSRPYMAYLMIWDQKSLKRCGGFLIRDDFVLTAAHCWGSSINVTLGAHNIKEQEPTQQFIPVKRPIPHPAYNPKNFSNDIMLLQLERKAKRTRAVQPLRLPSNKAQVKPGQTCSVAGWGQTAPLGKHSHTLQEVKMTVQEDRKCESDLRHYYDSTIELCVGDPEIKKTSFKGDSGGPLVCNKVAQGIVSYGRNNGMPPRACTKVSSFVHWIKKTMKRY
T1 sequence (P10144 21-247): as above

**Q.** Which results are given for `Cc1ccc(NC(=O)/C(O)=C(/C(=O)/C=C/c2ccccc2)C2OC(=O)c3ccccc32)c(C)c1` (stereo not drawn) [ZINC05723787]?
**A.** Granzyme B cleavage of betaglycan ([1]; inhibitor at 50 μM, RT, 4 h): partially inhibits; Granzyme B cleavage of betaglycan ([1]; inhibitor at 100 μM, RT, 4 h): completely; pIC50 [2]: ~4.40

**Q.** For `CC(=O)c1ccc(NC(=O)/C(O)=C(\C(=O)/C=C\c2ccccc2)[C@@H]2OC(=O)c3ccccc32)cc1` [ZINC05723764], which “decorin cleavage by Granzyme B” value [3] is on record?
**A.** Its value is “effective”.

**Q.** What about the “Granzyme B cleavage of betaglycan” value ([1]; inhibitor at 100 μM, RT, 4 h) of the same molecule?
**A.** The value was “does not inhibit”.

**Q.** And the pIC50 [2]?
**A.** The pIC50 was roughly 4.60.

**Q.** With `O=C(Nc1ccc(Cl)cc1Cl)/C(O)=C\C(=O)[C@@H]1CCOC1=O` (stereo in doubt) [ZINC05605947] as the molecule, how does the pIC50 [2] read?
**A.** The pIC50 was roughly 3.49.

**Q.** `O=C1CCC(=O)/C(=C(/O)CCC(=O)Nc2cccc(Cl)c2)C1` [ZINC05315460] was tested. Which pIC50 [2] did it give?
**A.** The pIC50 was roughly 4.00.

**Q.** With `CC(=O)c1ccccc1NC(=O)/C(O)=C(/C(=O)c1ccccc1-c1ccccc1)[C@@H]1OC(=O)c2ccccc21` [ZINC05723646] as the molecule, how does the pIC50 [2] read?
**A.** The pIC50 was roughly 3.60.

**Q.** With `COC(=O)CC/C(O)=C(/C(=O)CCC(=O)Nc1ccc(Cl)cc1Cl)C(=O)OC` [ZINC05317216] as the molecule, how does the pIC50 [2] read?
**A.** Its pIC50 is roughly 4.30.

**Q.** With `CC(=O)CCC(=O)CC(=O)CCC(=O)Nc1cc(Cl)ccc1Cl` [ZINC05316859] as the molecule, how does the pIC50 [2] read?
**A.** Its pIC50 is roughly 3.60.

**Q.** How did the pIC50 [2] turn out when `CCOc1ccccc1NC(=O)/C(O)=C(/C(=O)c1ccc2ccccc2c1)[C@@H]1OC(=O)c2ccccc21` [ZINC05398428] was run?
**A.** The pIC50 was roughly 3.59.

**Q.** `Cc1ccc(NC(=O)/C(O)=C(/C(=O)c2ccc3ccccc3c2)[C@H]2OC(=O)c3ccccc32)c(C)c1` (stereo in doubt) [ZINC05316154] was tested. Which pIC50 [2] did it give?
**A.** The pIC50 was roughly 3.71.

**Q.** For `O=c1oc(Cl)c(Cl)c2ccccc12` [DCI, 3,4-dichloroisocoumarin], which “Granzyme B-mediated cleavage of decorin, biglycan and betaglycan” value ([1]; 200 μM DCI, 4 h and 24 h, room temperature, Ponceau stain) is on record?
**A.** Its value is “effectively inhibited”.

**Q.** And the “TGF-β signaling (SMAD-3 and Erk 1/2 phosphorylation) in HCASMC” value [4]?
**A.** The value was “limited TGF-β signaling”.

**Q.** And the “release of TGF-β from betaglycan/TGF-β complexes by Granzyme B” value [5]?
**A.** The value was “partially inhibited”.

**Q.** And the “release of TGF-β from decorin, biglycan and betaglycan by Granzyme B” value ([5]; 24 h incubation, Western blot of supernatants)?
**A.** Its value is “not released; also recorded: inhibited; also recorded: no release evident”.

**Q.** `CC[C@H](C)[C@H](NC(=O)Cc1csc2ccccc12)C(=O)N[C@H]1CCc2cccc3c2N(C1=O)[C@H](C(=O)NCc1c[nH]nn1)C3` [Willoughby 20, Azepino[3,2,1-hi]indole-2-carboxamide, 5-[[(2S,3S)-2-[(2-benzo[b]thien-3-ylacetyl)amino]-3-methyl-1-oxopentyl]amino]-1,2,4,5,6,7-hexahydro-4-oxo-N-(1H-1,2,3-triazol-5-ylmethyl)-, (2S,5S)-] was tested. Which “Granzyme B cleavage of decorin” value ([1]; RT) did it give?
**A.** Its value is “Inhibits”.

**Q.** And the “Granzyme B cleavage of decorin” value ([1]; RT, listed as compound 20)?
**A.** The value was “prevented”.

**Q.** And the “Granzyme B cleavage of betaglycan” value ([1]; room temperature, 24 hours, 30 μl, Ponceau stain)?
**A.** Its value is “inhibits”.

**Q.** What about the pIC50 [2] of the same molecule?
**A.** Its pIC50 is roughly 5.51.

**Q.** And the “release of TGF-β from betaglycan/TGF-β complexes by Granzyme B” value [5]?
**A.** The value was “inhibited”.

**Q.** What about the “Granzyme B cleavage of fibronectin (FN)” value [6] of the same molecule?
**A.** The value was “inhibits”.

**Q.** How did the pIC50 [2] turn out when `Cc1ccc(NC(=O)/C(O)=C(/C(=O)c2ccc3ccccc3c2)[C@@H]2OC(=O)c3ccccc32)cc1C` [ZINC05723503] was run?
**A.** The pIC50 was roughly 3.57.
